Source: patent US20260000642A1 (Tay Therapeutics Limited, priority 2022, published 2026)
Values joined by “and” are separate entries in the source; they are usually repeats but may differ in a detail not shown here. Identical values can stand only once.

Test system: collagen-induced arthritis in Lewis rats
Test: Collagen-induced arthritis (CIA) model in rats: body weight, paw volume, clinical scores, clinical observations
[1] = Group 5 (CIA + Example 101 3 mg/kg), Day 13, individual animals, 3 mg/kg
[2] = Group 5 (CIA + Example 101 3 mg/kg), Day 16, individual animals, 3 mg/kg
[3] = Group 5 (CIA + Example 101 3 mg/kg), Day 17, individual animals, 3 mg/kg
[4] = Group 5 (CIA + Example 101 3 mg/kg), Day 20, individual animals, 3 mg/kg
[5] = Group 6 (CIA + Example 101 10 mg/kg), Day 2, individual animals, 10 mg/kg
[6] = Group 6 (CIA + Example 101 10 mg/kg), Day 5, individual animals, 10 mg/kg
[7] = Group 6 (CIA + Example 101 10 mg/kg), Day 6, individual animals, 10 mg/kg
[8] = Group 6 (CIA + Example 101 10 mg/kg), Day 7, individual animals, 10 mg/kg
[9] = Group 6 (CIA + Example 101 10 mg/kg), Day 13, individual animals, 10 mg/kg
[10] = Group 6 (CIA + Example 101 10 mg/kg), Day 15, individual animals, 10 mg/kg
[11] = Group 6 (CIA + Example 101 10 mg/kg), Day 18, individual animals, 10 mg/kg
[12] = Group 6 (CIA + Example 101 10 mg/kg), Day 19, individual animals, 10 mg/kg
[13] = Group 6 (CIA + Example 101 10 mg/kg), Day 20, individual animals, 10 mg/kg
[14] = Group 7 (CIA + Example 101 30 mg/kg), Day 1, individual animals, 30 mg/kg
[15] = Group 7 (CIA + Example 101 30 mg/kg), Day 9, individual animals, 30 mg/kg
[16] = Group 7 (CIA + Example 101 30 mg/kg), Day 11, individual animals, 30 mg/kg
[17] = Group 7 (CIA + Example 101 30 mg/kg), Day 12, individual animals, 30 mg/kg
[18] = Group 7 (CIA + Example 101 30 mg/kg), Day 13, individual animals, 30 mg/kg
[19] = Group 7 (CIA + Example 101 30 mg/kg), Day 15, individual animals, 30 mg/kg
[20] = Group 7 (CIA + Example 101 30 mg/kg), Day 17, individual animals, 30 mg/kg
[21] = Group 7 (CIA + Example 101 30 mg/kg), Day 20, individual animals, 30 mg/kg
[22] = Group 7 (CIA + Example 101 30 mg/kg), Day 21, individual animals, 30 mg/kg

Procedure: Prior to be randomly placed in treatment groups, animals were weighed, and paw volume was measured. Once randomly assigned to treatment groups, on Day 0, animals in groups 2-9 were immunized by subcutaneous injection at the base of the tail. The immunization comprised 100 μL of the CFA+Collagen emulsion (prepared according to the method in Experimental Method A). Animals in group one received no immunization. Seven days after the first injection, animals in groups 2-9 received a booster immunization comprising 200 μL of the IFA+Collagen emulsion (prepared according to the method in Experimental Method A).
Starting on Day 0, animals in group 1 and 2 were administered daily doses of the vehicle per os (P.O.) for 21 days.
The twice daily doses for animals in groups 4-9 were 8 hours apart (e.g., the first dose at 8:00 AM and the second dose at 4:00 PM).
Body weight of all animals was recorded daily for the 21-day period. Blind clinical scores on all four limbs were conducted for all animals in the study. Animals were assessed prior to receiving their first dose of the compound or control, and scores for each limb were combined to a total daily score for each animal. Clinical score assessments were performed on Day 0, 6, 12, 13, 14, 15, 18, 19, and 21 (for a total of 9 daily scores).
Paw volume was recorded for each animal on Day 0, 6, 12, 13, 14, 15, 18, 19, and 21 (for a total of 9 measurements). To measure paw volume, animals were gently held with one hand while the hind paw was placed into a plethysmometer with the other hand. Lipid displacement by the paw was recorded and used to represent paw volume.
At the conclusion of the study (end of the 21-day period), animals were euthanized. Euthanasia occurred four hours after animals received their first dose on the morning of Day 21. Hind limbs were collected following euthanasia, with the left limb being used for H&E staining.
All data measured and recorded was analyzed using SPSS 16.0 software. Groups were compared using one-way ANOVA and significance was set at p<0.05.
Arthritis was induced in Lewis rats by immunizing animals with the CFA+Collagen emulsion via subcutaneous injection at the base of the tail on day 0. Seven days after the first immunization, animals received a booster immunization with the IFA+Collagen emulsion via subcutaneous injection at the base of the tail.
Starting on day 0, animals in group 1 and 2 were administered daily doses of the vehicle per os (P.O.) for 21 days. […] The twice daily doses for animals in groups 4-9 were 8 hours apart (e.g., the first dose at 8:00 AM and the second dose at 4:00 PM).

## CNC(=O)c1[nH]c(C(=O)NC2CCC2)cc1O[C@@H](C)c1ccccc1 [Example 101, N^5-cyclobutyl-N^2-methyl-3-(1-phenylethoxy)-1H-pyrrole-2,5-dicarboxamide]
[1]
  Animal body weight: 180 g
  Animal body weight percent change: 9.70%
Group 5 (CIA + Example 101 3 mg/kg), Day 14, individual animals, 3 mg/kg
  Animal body weight: 180 g
[2]
  Animal body weight: 150 g and 170 g
  Animal body weight percent change: 0.58%
[3]
  Animal body weight: 170 g
  Animal body weight percent change: −4.40%
Group 5 (CIA + Example 101 3 mg/kg), Day 18, individual animals, 3 mg/kg
  Animal body weight percent change: −4.40% and 0.00%
Group 5 (CIA + Example 101 3 mg/kg), Day 19, individual animals, 3 mg/kg
  Animal body weight: 150 g and 170 g
[4]
  Animal body weight: 160 g and 170 g
  Animal body weight percent change: −4.40% and 0.60%
Group 5 (CIA + Example 101 3 mg/kg), Day 21, individual animals, 3 mg/kg
  Animal body weight percent change: 0.60%
Group 6 (CIA + Example 101 10 mg/kg), Day 0, individual animals
  Animal body weight percent change: 0.00%
Group 6 (CIA + Example 101 10 mg/kg), Day 0, individual animals, 10 mg/kg
  Animal body weight: 170 g and 160 g
Group 6 (CIA + Example 101 10 mg/kg), Day 1, individual animals, 10 mg/kg
  Animal body weight percent change: 0.00% and 0.64% and 5.00%
[5]
  Animal body weight: 160 g
  Animal body weight percent change: 0.62%
Group 6 (CIA + Example 101 10 mg/kg), Day 3, individual animals, 10 mg/kg
  Animal body weight percent change: 0.59%
Group 6 (CIA + Example 101 10 mg/kg), Day 4, individual animals, 10 mg/kg
  Animal body weight percent change: 0.58% and 0.59% and 3.70% and −0.61% and 7.50%
[6]
  Animal body weight: 170 g and 160 g
  Animal body weight percent change: −0.62%
[7]
  Animal body weight: 170 g
  Animal body weight percent change: −1.76% and 10.00%
[8]
  Animal body weight: 180 g
  Animal body weight percent change: −0.61%
Group 6 (CIA + Example 101 10 mg/kg), Day 8, individual animals, 10 mg/kg
  Animal body weight: 180 g
Group 6 (CIA + Example 101 10 mg/kg), Day 9, individual animals, 10 mg/kg
  Animal body weight percent change: 3.70%
Group 6 (CIA + Example 101 10 mg/kg), Day 10, individual animals, 10 mg/kg
  Animal body weight percent change: 0.00%
Group 6 (CIA + Example 101 10 mg/kg), Day 11, individual animals, 10 mg/kg
  Animal body weight percent change: −0.59% and 0.62%
[9]
  Animal body weight: 150 g and 160 g
  Animal body weight percent change: 0.62% and −0.62%
[10]
  Animal body weight: 170 g
  Animal body weight percent change: −0.62%
Group 6 (CIA + Example 101 10 mg/kg), Day 16, individual animals, 10 mg/kg
  Animal body weight percent change: 0.00% and −0.62%
Group 6 (CIA + Example 101 10 mg/kg), Day 17, individual animals, 10 mg/kg
  Animal body weight percent change: 0.62% and 20.00%
[11]
  Animal body weight: 160 g
  Animal body weight percent change: 0.00%
[12]
  Animal body weight: 170 g and 160 g (2×)
  Animal body weight percent change: −0.58%
[13]
  Animal body weight: 170 g
  Animal body weight percent change: −0.62% and −0.61%
Group 6 (CIA + Example 101 10 mg/kg), Day 21, individual animals, 10 mg/kg
  Animal body weight percent change: −0.62%
Group 7 (CIA + Example 101 30 mg/kg), Day 0, individual animals
  Animal body weight percent change: 0.00%
[14]
  Animal body weight: 160 g and 170 g
  Animal body weight percent change: −0.61% and 1.20%
Group 7 (CIA + Example 101 30 mg/kg), Day 2, individual animals, 30 mg/kg
  Animal body weight: 170 g
Group 7 (CIA + Example 101 30 mg/kg), Day 3, individual animals, 30 mg/kg
  Animal body weight: 160 g
Group 7 (CIA + Example 101 30 mg/kg), Day 4, individual animals, 30 mg/kg
  Animal body weight: 160 g
Group 7 (CIA + Example 101 30 mg/kg), Day 5, individual animals, 30 mg/kg
  Animal body weight percent change: 0.00% and 0.61%
Group 7 (CIA + Example 101 30 mg/kg), Day 7, individual animals, 30 mg/kg
  Animal body weight percent change: 0.61%
Group 7 (CIA + Example 101 30 mg/kg), Day 8, individual animals, 30 mg/kg
  Animal body weight percent change: 7.10% and −0.61% (2×) and −0.60%
[15]
  Animal body weight: 170 g
  Animal body weight percent change: −0.58%
Group 7 (CIA + Example 101 30 mg/kg), Day 10, individual animals, 30 mg/kg
  Animal body weight percent change: −0.58% and 0.00% (2×)
[16]
  Animal body weight: 170 g
  Animal body weight percent change: 0.61%
[17]
  Animal body weight: 170 g and 160 g
  Animal body weight percent change: 1.20%
[18]
  Animal body weight: 170 g and 160 g
  Animal body weight percent change: −0.61% and 1.30%
Group 7 (CIA + Example 101 30 mg/kg), Day 14, individual animals, 30 mg/kg
  Animal body weight percent change: 2.60%
[19]
  Animal body weight: 170 g and 160 g
  Animal body weight percent change: 0.00% (2×) and 3.90%
Group 7 (CIA + Example 101 30 mg/kg), Day 16, individual animals, 30 mg/kg
  Animal body weight percent change: 0.65%
[20]
  Animal body weight: 170 g
  Animal body weight percent change: 1.30%
Group 7 (CIA + Example 101 30 mg/kg), Day 18, individual animals, 30 mg/kg
  Animal body weight percent change: −0.58% and −1.30%
Group 7 (CIA + Example 101 30 mg/kg), Day 19, individual animals, 30 mg/kg
  Animal body weight percent change: −1.20%
[21]
  Animal body weight: 160 g
  Animal body weight percent change: 6.10%
[22]
  Animal body weight: 150 g
  Animal body weight percent change: 6.10% and −2.60%
